Experimental data taken from PMC7782793, “Hydroxamic acid-modified peptide microarrays for profiling isozyme-selective interactions and inhibition of histone deacetylases” (Nature Communications, 2021).
“And” between values parts separate entries of the source, which are not always exact repeats. Identical values can stand only once. Marks after values point to notes of the source that are not given here. Non-standard residues stand in square brackets, D forms with d. Residues, ends and D or L forms follow the SMILES beside them. *: point of attachment. Asu = N[C@@H](CCCCCC(=O)O)C(=O)O; NHOH = ON*

How the values were obtained:
HDAC1 [1] = molecular target: T1, HDAC1 (Homo sapiens, UniProt Q13547); experiment: Recombinant HDAC µSPOT microarray binding assay;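 further: slides with spotted peptides incubated with six HDAC concentrations in HEPES buffer pH 7.4, spot intensities fitted by four-parameter logistic, EC50 as enzyme concentration giving half-maximal binding signal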
T1 construct: HDAC1 (full length, C-terminal His tag, C-terminal FLAG tag, BPS Bioscience, cat. #: 50051); FLAG (C); purchased BPS Bioscience 50051
T1 sequence (Q13547 whole entry): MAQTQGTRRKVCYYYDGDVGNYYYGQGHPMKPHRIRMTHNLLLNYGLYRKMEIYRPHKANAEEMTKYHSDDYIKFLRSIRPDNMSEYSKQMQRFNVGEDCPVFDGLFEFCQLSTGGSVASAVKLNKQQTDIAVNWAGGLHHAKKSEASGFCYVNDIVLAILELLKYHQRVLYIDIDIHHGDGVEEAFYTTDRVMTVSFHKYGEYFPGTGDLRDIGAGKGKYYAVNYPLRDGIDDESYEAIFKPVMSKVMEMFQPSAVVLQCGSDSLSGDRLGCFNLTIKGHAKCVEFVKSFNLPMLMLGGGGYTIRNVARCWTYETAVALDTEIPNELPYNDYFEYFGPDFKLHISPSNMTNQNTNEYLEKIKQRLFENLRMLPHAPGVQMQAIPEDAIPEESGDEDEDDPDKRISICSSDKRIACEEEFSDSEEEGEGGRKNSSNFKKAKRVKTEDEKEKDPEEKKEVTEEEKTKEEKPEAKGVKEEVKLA

HDAC2 [2] = molecular target: T2, HDAC2 (Homo sapiens, UniProt Q92769); experiment: Recombinant HDAC µSPOT microarray binding assay;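 further: Cellulose-bound peptide spots on slides incubated with six HDAC enzyme concentrations, binding intensity read, four-parameter variable-slope fit, EC50 is enzyme concentration giving half-maximal binding, in HEPES buffer pH 7.4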
T2 construct: HDAC2 (full length, C-terminal His tag, BPS Bioscience, cat. #: 50002); purchased BPS Bioscience 50002
T2 sequence (Q92769 whole entry): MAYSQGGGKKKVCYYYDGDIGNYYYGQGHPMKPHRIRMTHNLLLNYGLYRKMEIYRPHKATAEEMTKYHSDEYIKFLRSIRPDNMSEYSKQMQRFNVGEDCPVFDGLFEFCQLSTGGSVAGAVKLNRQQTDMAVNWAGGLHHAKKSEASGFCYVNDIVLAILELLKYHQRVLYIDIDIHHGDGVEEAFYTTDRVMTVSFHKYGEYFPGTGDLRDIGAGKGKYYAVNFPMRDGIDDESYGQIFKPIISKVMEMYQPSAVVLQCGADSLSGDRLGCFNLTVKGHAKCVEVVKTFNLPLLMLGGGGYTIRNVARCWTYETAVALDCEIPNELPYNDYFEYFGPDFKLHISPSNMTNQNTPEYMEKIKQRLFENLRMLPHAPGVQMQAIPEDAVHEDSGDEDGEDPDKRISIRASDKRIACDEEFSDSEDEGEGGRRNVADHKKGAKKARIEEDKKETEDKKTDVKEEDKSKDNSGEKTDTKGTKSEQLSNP
Description: Experiments were performed twice, data were obtained with Array Analyze software (Active Motif), and data analysis and representation were performed with the GraphPad Prism 7 software. Outliers were curated manually and data were fitted to nonlinear regression [log(agonist) vs. response—variable slope (four parameters)]. […] Non-sigmoidal curves were denoted as not determined (N.D.) The pEC50 values were determined as the concentration of HDAC enzyme required for half-maximal binding signal.

HDAC3/NCoR2 [3] = molecular target: T3, HDAC3/NCoR2 (Homo sapiens, UniProt O15379); experiment: Recombinant HDAC µSPOT microarray binding assay;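 further: peptide spots on cellulose slides incubated with rising HDAC enzyme concentrations, imaged together, four-parameter logistic fit, EC50 is enzyme concentration giving half-maximal binding signal, two experiments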
T3 construct: HDAC3/NCoR2 (full length, C-terminal His tag, NCoR2 N-terminal GST tag); purchased BPS Bioscience 50003
T3 sequence (O15379 whole entry): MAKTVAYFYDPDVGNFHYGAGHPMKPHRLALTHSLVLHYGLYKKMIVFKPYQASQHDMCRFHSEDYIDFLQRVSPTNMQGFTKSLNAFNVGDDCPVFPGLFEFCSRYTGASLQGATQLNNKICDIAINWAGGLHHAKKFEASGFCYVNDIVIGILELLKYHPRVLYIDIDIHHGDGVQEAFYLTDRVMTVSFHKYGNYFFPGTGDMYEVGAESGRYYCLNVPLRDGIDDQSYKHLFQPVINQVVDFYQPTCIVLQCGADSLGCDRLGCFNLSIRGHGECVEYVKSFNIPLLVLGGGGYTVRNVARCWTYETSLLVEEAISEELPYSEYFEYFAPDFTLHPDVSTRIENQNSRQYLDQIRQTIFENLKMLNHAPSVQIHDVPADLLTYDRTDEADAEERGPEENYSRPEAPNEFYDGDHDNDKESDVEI
T3 sequence (Q9Y618 389-480 partner limits assumed): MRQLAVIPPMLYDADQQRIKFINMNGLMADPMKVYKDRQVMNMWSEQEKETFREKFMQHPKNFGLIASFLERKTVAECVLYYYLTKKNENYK

HDAC1 [4] = molecular target: T1, HDAC1; experiment: HDAC inhibition assay (fluorogenic, Ac-Leu-Gly-Lys(Ac)-AMC); assay type: biochemical; conditions: for HDAC1 dose-response data (relative enzyme activity), Fig. 6 + S. Fig. 10: duplicate columns
HDAC2 [5] = molecular target: T2, HDAC2; experiment: as above; assay type: biochemical; conditions: for HDAC2 dose-response data (relative enzyme activity), Fig. 6 + S. Fig. 10: duplicate columns
HDAC3/NCoR2 [6] = molecular target: T3, HDAC3/NCoR2; experiment: as above; assay type: biochemical; conditions: for HDAC3 dose-response data (relative enzyme activity), Fig. 6 + S. Fig. 10: duplicate columns
HDAC6 = molecular target: T4, HDAC6 (Homo sapiens, UniProt Q9UBN7); experiment: as above; assay type: biochemical; conditions: HDAC6, replicates
T4 construct: HDAC6 (full length, BPS Bioscience, cat. #: 50056); purchased BPS Bioscience 50056
T4 sequence (Q9UBN7 1-1215): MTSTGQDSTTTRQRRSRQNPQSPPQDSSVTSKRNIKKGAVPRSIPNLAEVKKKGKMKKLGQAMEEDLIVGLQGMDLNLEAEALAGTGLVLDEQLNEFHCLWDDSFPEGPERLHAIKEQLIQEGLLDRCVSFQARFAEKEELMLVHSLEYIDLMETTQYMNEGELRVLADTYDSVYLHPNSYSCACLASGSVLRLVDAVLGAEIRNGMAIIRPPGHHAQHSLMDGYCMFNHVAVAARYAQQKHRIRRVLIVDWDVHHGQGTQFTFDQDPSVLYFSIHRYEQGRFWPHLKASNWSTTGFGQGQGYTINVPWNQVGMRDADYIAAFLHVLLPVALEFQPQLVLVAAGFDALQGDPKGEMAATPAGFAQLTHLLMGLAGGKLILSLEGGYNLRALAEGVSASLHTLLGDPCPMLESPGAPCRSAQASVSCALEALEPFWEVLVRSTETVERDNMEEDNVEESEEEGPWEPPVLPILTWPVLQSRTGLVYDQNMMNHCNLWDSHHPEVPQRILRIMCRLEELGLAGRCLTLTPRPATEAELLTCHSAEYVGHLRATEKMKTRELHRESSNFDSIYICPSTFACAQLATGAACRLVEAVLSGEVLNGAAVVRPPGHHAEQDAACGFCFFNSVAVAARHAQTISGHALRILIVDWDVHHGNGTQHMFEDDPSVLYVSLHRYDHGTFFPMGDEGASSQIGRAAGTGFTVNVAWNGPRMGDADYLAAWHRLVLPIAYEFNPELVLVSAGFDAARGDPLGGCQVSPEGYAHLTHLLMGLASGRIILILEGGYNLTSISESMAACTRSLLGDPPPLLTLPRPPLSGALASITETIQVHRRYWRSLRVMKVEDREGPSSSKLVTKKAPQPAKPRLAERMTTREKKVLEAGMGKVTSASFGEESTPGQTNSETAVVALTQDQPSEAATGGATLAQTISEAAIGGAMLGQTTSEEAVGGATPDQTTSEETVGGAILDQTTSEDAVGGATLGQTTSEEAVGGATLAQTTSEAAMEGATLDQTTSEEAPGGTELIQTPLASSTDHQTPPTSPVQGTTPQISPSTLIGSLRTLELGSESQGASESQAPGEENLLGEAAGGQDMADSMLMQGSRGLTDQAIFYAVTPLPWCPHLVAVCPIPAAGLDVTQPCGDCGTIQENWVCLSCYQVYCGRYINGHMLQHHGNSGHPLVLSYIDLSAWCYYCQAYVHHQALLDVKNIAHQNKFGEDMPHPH

HDAC4 = molecular target: T5, HDAC4 (Homo sapiens, UniProt P56524); experiment: HDAC inhibition assay (fluorogenic, Ac-Leu-Gly-Lys(Tfa)-AMC); assay type: biochemical; conditions: 2 internal replicates
T5 construct: purchased BPS Bioscience 50004
T5 sequence (P56524 627-1084): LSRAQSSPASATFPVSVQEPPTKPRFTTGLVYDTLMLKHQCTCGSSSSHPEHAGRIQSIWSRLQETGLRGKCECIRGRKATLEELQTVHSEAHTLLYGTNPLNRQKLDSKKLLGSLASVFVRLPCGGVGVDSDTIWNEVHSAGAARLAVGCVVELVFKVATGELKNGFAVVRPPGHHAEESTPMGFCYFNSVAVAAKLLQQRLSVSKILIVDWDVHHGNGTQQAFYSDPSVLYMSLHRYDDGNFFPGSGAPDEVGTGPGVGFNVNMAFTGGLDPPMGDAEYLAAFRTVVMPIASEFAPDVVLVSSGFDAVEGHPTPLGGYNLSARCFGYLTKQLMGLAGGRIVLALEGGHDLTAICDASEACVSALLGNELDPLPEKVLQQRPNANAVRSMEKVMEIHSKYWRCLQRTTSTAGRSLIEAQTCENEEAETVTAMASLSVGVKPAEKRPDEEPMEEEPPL

HDACs 1‒3 and 8 = experiment: HDAC inhibition assays, statements across several class I isozymes; assay type: biochemical, human; conditions: resynthesized peptides, from Ki
[7] = log[inhibitor(M)] -10,5850266520292*, whole line marked with asterisks

In the case of `CC(=O)N[C@@H](CC(C)C)C(=O)NCC(=O)N[C@@H](CCCCN)C(=O)NCC(=O)NCC(=O)N[C@@H](C)C(=O)N[C@@H](CCCCCC(=O)NO)C(=O)N[C@@H](CCCNC(=N)N)C(=O)N[C@@H](Cc1c[nH]cn1)C(=O)N[C@@H](CCCNC(=N)N)C(=O)N[C@@H](CCCCN)C(=O)N[C@H](C(=O)N[C@@H](CC(C)C)C(=O)N[C@@H](CCCNC(=N)N)C(=O)N[C@@H](CC(=O)O)C(=O)N[C@@H](CC(N)=O)C(=O)N[C@@H](Cc1c[nH]c2ccccc12)C(N)=O)C(C)C` [16a] (Ac-LGKGGA[Asu](NHOH)RHRKVLRDNW-NH2), the EC50 (HDAC1 [1]) is reported as 12.6 nM, the EC50 (HDAC2 [2]) is reported as 1.45 nM and the EC50 (HDAC3/NCoR2 [3]) is reported as 3.24 nM. For the same molecule, the Ki (HDAC1 [4]) was 15.7 ± 0.2 nM, the “HDAC1 dose-response data (relative enzyme activity), Fig. 6 + S. Fig. 10” value (HDAC1 [4]; log[inhibitor(M)] -6.39794) was 20.1917 and 18.7736 and the “HDAC1 dose-response data (relative enzyme activity), Fig. 6 + S. Fig. 10” value (HDAC1 [4]; log[inhibitor(M)] -7.09691) was 58.4856 and 48.5202. The “HDAC1 dose-response data (relative enzyme activity), Fig. 6 + S. Fig. 10” value (HDAC1 [4]; log[inhibitor(M)] -7.79588) was 83.6845 and 79.5184, the “HDAC1 dose-response data (relative enzyme activity), Fig. 6 + S. Fig. 10” value (HDAC1 [4]; log[inhibitor(M)] -8.49485) was 104.354 and 102.416 and the “HDAC1 dose-response data (relative enzyme activity), Fig. 6 + S. Fig. 10” value (HDAC1 [4]; log[inhibitor(M)] -9.19382) was 117.259 and 104.242. The “HDAC1 dose-response data (relative enzyme activity), Fig. 6 + S. Fig. 10” value (HDAC1 [4]; log[inhibitor(M)] -9.89279) was 112.284 and 97.8893, the “HDAC1 dose-response data (relative enzyme activity), Fig. 6 + S. Fig. 10” value (HDAC1 [4]; [7]) was 104,006* and 95,9789* and the “HDAC2 dose-response data (relative enzyme activity), Fig. 6 + S. Fig. 10” value (HDAC2 [5]; log[inhibitor(M)] -7.79588) was 97.4067 and 92.3774. For the same molecule, the “HDAC2 dose-response data (relative enzyme activity), Fig. 6 + S. Fig. 10” value (HDAC2 [5]; [7]) was 106,147* and 102,092*, the Ki (HDAC2 [5]; resynthesized peptide in solution, Cheng-Prusoff, n = 2) was 18.3 ± 0.3 nM and the Ki (HDAC3/NCoR2 [6]) was 2.22 ± 0.02 nM. For the same molecule, the “HDAC3 dose-response data (relative enzyme activity), Fig. 6 + S. Fig. 10” value (HDAC3/NCoR2 [6]; log[inhibitor(M)] -4.30103) was 0.4175 and 0.3694, the “HDAC3 dose-response data (relative enzyme activity), Fig. 6 + S. Fig. 10” value (HDAC3/NCoR2 [6]; log[inhibitor(M)] -5) was 1.3048 and 1.953 and the “HDAC3 dose-response data (relative enzyme activity), Fig. 6 + S. Fig. 10” value (HDAC3/NCoR2 [6]; log[inhibitor(M)] -5.69897) was 3.445 and 2.8496. The “HDAC3 dose-response data (relative enzyme activity), Fig. 6 + S. Fig. 10” value (HDAC3/NCoR2 [6]; log[inhibitor(M)] -6.39794) was 11.0647 and 10.1847, the “HDAC3 dose-response data (relative enzyme activity), Fig. 6 + S. Fig. 10” value (HDAC3/NCoR2 [6]; log[inhibitor(M)] -7.09691) was 22.9645 and 23.8522 and the “HDAC3 dose-response data (relative enzyme activity), Fig. 6 + S. Fig. 10” value (HDAC3/NCoR2 [6]; log[inhibitor(M)] -7.79588) was 45.6159 and 50.9763. The “HDAC3 dose-response data (relative enzyme activity), Fig. 6 + S. Fig. 10” value (HDAC3/NCoR2 [6]; log[inhibitor(M)] -8.49485) was 73.3299 and 73.9314, the “HDAC3 dose-response data (relative enzyme activity), Fig. 6 + S. Fig. 10” value (HDAC3/NCoR2 [6]; log[inhibitor(M)] -9.19382) was 93.2672 and 99.1029 and the “HDAC3 dose-response data (relative enzyme activity), Fig. 6 + S. Fig. 10” value (HDAC3/NCoR2 [6]; log[inhibitor(M)] -9.89279) was 96.9207 and 113.14. The “HDAC3 dose-response data (relative enzyme activity), Fig. 6 + S. Fig. 10” value (HDAC3/NCoR2 [6]; [7]) was 99,4259* and 104,433*, the “residual enzymatic activity relative to control wells” value (HDAC6; log[inhibitor(M)] -4.30103) was 4.09 and 0.65 and the “residual enzymatic activity relative to control wells” value (HDAC6; log[inhibitor(M)] -5) was 6.22 and 1.17. The “residual enzymatic activity relative to control wells” value (HDAC6; log[inhibitor(M)] -5.69897) was 11.26 and 3.12, the “residual enzymatic activity relative to control wells” value (HDAC6; log[inhibitor(M)] -6.39794) was 21.64 and 10.97 and the “residual enzymatic activity relative to control wells” value (HDAC6; log[inhibitor(M)] -7.09691) was 46.18 and 32.55. The “residual enzymatic activity relative to control wells” value (HDAC6; log[inhibitor(M)] -7.79588) was 74.92 and 62.21, the “residual enzymatic activity relative to control wells” value (HDAC6; log[inhibitor(M)] -8.49485) was 91.41 and 82.42 and the “residual enzymatic activity relative to control wells” value (HDAC6; log[inhibitor(M)] -9.19382) was 100.82 and 93.56. The “residual enzymatic activity relative to control wells” value (HDAC6; log[inhibitor(M)] -9.89279) was 98.48 and 94.75, the “residual enzymatic activity relative to control wells” value (HDAC6; log[inhibitor(M)] -10.585) was 101,7* and 98,09* and the “residual enzymatic activity relative to control wells” value (HDAC4; inhibitor 5 µM) was 96.58. The remaining activity at 5 µM (HDAC4; inhibitor 5 µM, read-out: residual enzymatic activity relative to control wells) was 93.6%, the “residual enzymatic activity relative to control wells” value (HDAC4; inhibitor 50 µM) was 68.39 and the remaining activity at 50 µM (HDAC4; inhibitor 50 µM, read-out: residual enzymatic activity relative to control wells) was 67.1%. For the same molecule, the “selectivity against HDACs 1‒3 versus HDAC8” value (HDACs 1‒3 and 8) was “over 100 fold”.
